The test system of experiment [1] is MCF-7 cells. The experiment can be described thus: Resazurin viability assay with or without folinic acid, MCF-7. It counts as cell-based, Human. The note with it: 72 h. Here is the method: (§1) The incorporation and metabolism of resazurin to resorufin was used to monitor cell viability. MDA-MB-468, MCF7, and MDA-MB-231 cells were grown in 96-well plates with a total of 5000 cells per well in a total volume of 180 μL for 24 h, as described above. After 24 h of growth, cells were treated with increasing concentrations of compounds (0.0457–100 μM) for 72 h. A vehicle control was also performed. […] The volume of treatment added to each well was 20 μL. For folinic acid rescue experiments, 5000 cells were treated with 10 μM compound with or without 300 μg/mL folinic acid (Supelco). After 72 h of treatment, resazurin was added to a final concentration of 44 μM, and cells were incubated for an additional 4 h at 37 °C. The fluorescence of resorufin was monitored on a Synergy MX microplate reader (BioTek) using an excitation wavelength of 540 nm and an emission wavelength of 600 nm. Percent viability relative to the DMSO control was determined. Each treatment was performed in triplicate, and each individual experiment was repeated three times (n = 3).

For experiment [2], the system named is MDA-MB-468 cells. Put plainly: Resazurin viability assay with or without folinic acid, MDA-MB-468. It counts as cell-based, Human. Conditions: 72 h; for Rescue of viability impairment by folinic acid: MDA-MB-468, 10 μM ± 300 μg/mL FA. On the procedure: as §1
For experiment [3], the target named is T1, purified human DHFR (Homo sapiens, UniProt P00374).
T1 construct: made in house; host or cells: E. coli BL21 (DE3) T1R pRARE2, pNIC-Bsa4 plasmid
T1 sequence (P00374 1-187): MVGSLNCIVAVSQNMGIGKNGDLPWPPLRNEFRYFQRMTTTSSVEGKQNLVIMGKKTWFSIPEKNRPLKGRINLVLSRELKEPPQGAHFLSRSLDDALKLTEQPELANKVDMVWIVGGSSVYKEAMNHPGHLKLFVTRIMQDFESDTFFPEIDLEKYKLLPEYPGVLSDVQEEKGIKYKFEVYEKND
The experiment can be described thus: DHFR enzymatic inhibition assay (NADPH absorbance at 340 nm). It counts as biochemical. The note with it: 137.5 μM DHF, 125 μM NADPH, n = 2. On the procedure: Working stocks of each inhibitor were created so that the final concentration of DMSO in each reaction was 2% in a final reaction volume of 100 μL. […] Reactions were prepared on ice in 384-well plates. […] Consumption of NADPH by measuring absorbance at 340 nm was used to monitor the progress of the reaction. Readings were taken every 5 min for 1 h at 37 °C using a Synergy MX microplate reader (BioTek).
Percent inhibition relative to the no-inhibitor control was determined using Equation (1). (1) % Inhibition=A340Inhibitor−A340DMSO Control/A340No DHFR−A340DMSO Control×100
Percent inhibition data were then fit to the four-parameter logistic model (Equation (2)) in GraphPad Prism 9.4.1 to determine half-maximal inhibitory concentrations (IC50):(2) y=Bottom+Top−Bottom/1+IC50/x^Hill slope where y represents the percent inhibition, x represents the concentration of inhibitor (μM), the bottom and top represent the bottom and top plateaus, and the Hill slope represents the slope factor. Each experiment contained duplicates of each sample, and each experiment was performed 2 times (n = 2). An ordinary one-way ANOVA was used to test for statistical significance between treatments.

Experiment [4] deals with T2, DHFR in MDA-MB-468 lysates.
T2 construct: reactions containing 55 μg MDA-MB-468 lysate; endogenous in cells; host or cells: MDA-MB-468
Put plainly: Lysate cellular thermal shift assay (CETSA) for DHFR. In kind it is binding, Human. The note with it: 10 μM, MDA-MB-468 lysate, 45 °C for 3 min, DMSO at 37 °C = 100%.

Experiment [5] concerns leukemia. Also on record: method as in PMID 5479856, PMID 5479852, PMID 5241406. The note with it: early studies in the 1970s; cited from earlier work.
The test system of experiment [6] is T3, thymidine phosphorylase (TP) in MDA-MB-468 cell lysates.
T3 construct: MDA-MB-468 lysates were treated with 10 μM each; endogenous in cells; host or cells: MDA-MB-468
Put plainly: Lysate CETSA for thymidine phosphorylase. It counts as binding, Human. The note with it: 10 μM, 65 °C, n = 1.

Like-named read-outs stand apart in the source and are kept apart here.

With `CC1(C)N=C(N)N=C(N)N1c1ccc(CCCCc2ccc(S(=O)(=O)F)cc2)c(Cl)c1` [compound 127159], the “Relative Viability (%) – Inhibitor + FA Treatment” value in experiment [1] (MCF-7, 10 μM + 300 μg/mL folinic acid) came out at 99.99 ± 3.2%; in experiment [2] (MDA-MB-468, 10 μM + 300 μg/mL folinic acid) it was 77.23 ± 7.2%. Further, the “Relative Viability (%) – Inhibitor Alone” value in experiment [1] (MCF-7, 10 μM, relative to DMSO) is on record as 67.68 ± 13.3%; in experiment [2] (MDA-MB-468, 10 μM, relative to DMSO) it was 70.45 ± 7.8%. The “Rescue of viability impairment by folinic acid” value in experiment [2] was “rescued in all but MDA-MB-468 cells”. Further, the IC50 in experiment [3] (200 nM DHFR, read-out: IC50) is 750 ± 320 nM; in experiment [3] (IC50, 200 nM DHFR), under 1000 nM. For the same compound, in experiment [4], the “Normalized Band Density (%) of soluble DHFR” value (from here on “Normalized Band Density (%)”) is 99.96 ± 26.2%. In addition, the “Anti-leukemic activity in vivo” value in experiment [5] is reported as “promising anti-leukemic activity in vivo”.
Turning to `CC1(C)N=C(N)N=C(N)N1c1ccc(Cl)cc1` [Cyc, Cycloguanil], the “Normalized Band Density (%)” value is “greater than 100%” in experiment [4] and 125.67 ± 39.6% in experiment [4] (listed as Cycloguanil).
With `CCc1nc(N)nc(N)c1-c1ccc(Cl)cc1` [Pyr, Pyrimethamine], the “Rescue of viability impairment by folinic acid” value in experiment [2] is listed as “statistically significant rescue”. Besides, the “Normalized Band Density (%)” value is listed as “greater than 100%” in experiment [4] and 104.12 ± 33.5% in experiment [4] (listed as Pyrimethamine). Moreover, in experiment [6], the “TP stabilization by CETSA” value is recorded as “no stabilization of TP was detected”.

Source of the values: PMC9961069 (Metabolites, 2023).
